Test results as given in article PMC4729137, “Functional analysis of androgen receptor mutations that confer anti-androgen resistance identified in circulating cell-free DNA from prostate cancer patients” (Genome Biology, 2016).
Where a chain is given by its changes, count along the chain named.

What was measured:
D880E-AR = target: T1, D880E-AR (Homo sapiens, UniProt P10275, D880E); assay type: cell-based; conditions: AR mutant D880E; transfected PC3 cells; 0.1 nM R1881; drug 0 to 50 μM
T1 sequence (P10275 1-920 D880E): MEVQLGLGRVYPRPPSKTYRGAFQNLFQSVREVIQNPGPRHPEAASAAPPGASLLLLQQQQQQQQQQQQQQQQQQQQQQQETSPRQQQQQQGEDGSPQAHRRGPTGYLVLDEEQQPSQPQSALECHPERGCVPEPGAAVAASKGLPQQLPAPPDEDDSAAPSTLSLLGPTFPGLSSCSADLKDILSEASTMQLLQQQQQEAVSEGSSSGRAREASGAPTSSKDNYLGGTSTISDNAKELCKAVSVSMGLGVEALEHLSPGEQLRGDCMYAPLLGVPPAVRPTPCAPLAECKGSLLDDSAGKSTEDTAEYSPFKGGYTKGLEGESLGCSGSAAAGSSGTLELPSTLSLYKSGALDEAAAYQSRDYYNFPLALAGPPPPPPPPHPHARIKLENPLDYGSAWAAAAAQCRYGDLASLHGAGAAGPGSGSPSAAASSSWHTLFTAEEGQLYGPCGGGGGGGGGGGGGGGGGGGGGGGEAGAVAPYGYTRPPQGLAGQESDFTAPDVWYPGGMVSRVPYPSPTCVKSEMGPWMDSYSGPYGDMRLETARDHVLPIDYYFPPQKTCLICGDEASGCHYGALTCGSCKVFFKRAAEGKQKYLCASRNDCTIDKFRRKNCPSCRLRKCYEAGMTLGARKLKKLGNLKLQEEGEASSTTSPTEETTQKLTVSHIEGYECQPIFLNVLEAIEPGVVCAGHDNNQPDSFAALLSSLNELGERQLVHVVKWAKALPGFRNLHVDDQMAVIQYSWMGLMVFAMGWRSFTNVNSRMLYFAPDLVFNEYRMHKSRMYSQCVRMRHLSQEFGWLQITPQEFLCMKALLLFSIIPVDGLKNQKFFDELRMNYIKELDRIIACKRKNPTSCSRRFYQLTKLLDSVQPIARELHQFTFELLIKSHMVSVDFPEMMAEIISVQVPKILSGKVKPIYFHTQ
From the text: (§1) Full-length human AR (WT-AR) was encoded on a pcDNA3.1 expression plasmid (Life technologies). The LBD point mutations (single and multiple) were generated using the QuikChange II Site-Directed Mutagenesis Kit (Agilent Technologies) as per manufacturer’s instructions using WT-AR as the template. The mutagenic oligonucleotide primers were designed individually with the desired mutation in the middle of the primer with approximately 10 to 15 bases of correct sequence on both sides.
(§2) PC3 cells were seeded and transfected as described above. […] A non-stimulated/no R1881 control was used. After 24 h, cells were lysed and AR-dependent luciferase activity was quantified. Each concentration was assayed in quadruplicate n = 4, with a biological replicate of n = 3. Results were averaged and normalized by expressing them as a percentage of WT AR activity.

E894K-AR = target: T2, E894K-AR (Homo sapiens, UniProt P10275, E894K); assay type: cell-based; conditions: AR mutant E894K; transfected PC3 cells; 0.1 nM R1881; drug 0 to 50 μM
T2 sequence (P10275 1-920 E894K): T1 sequence (P10275 1-920 D880E) with E880D, E894K
From the text: as §1, §2

Agonist response to treatment (D880E-AR): Partial | Agonist response to treatment (E894K-AR): Partial
Compound: CC(C)(O)C(=O)Nc1ccc([N+](=O)[O-])c(C(F)(F)F)c1 [Hydroxyflutamide, hydroxyflutamide]
